Data on 26 compounds can be found in patent publication US20200071351A1, “TACCALONOLIDE MICROTUBULE STABILIZERS” (THE BOARD OF REGENTS OF THE UNIVERSITY OF TEXAS SYSTEM, priority 2016, published 2020).

Read-outs that look alike come from different tables or passages of the source.

In the assay the test system is HeLa cells. Kind of assay: Inhibition of cellular proliferation, SRB assay, HeLa cells. It is filed as cell-based. To be noted: for activity at concentrations as high as 30,000 nM: up to 30,000 nM. The protocol:
The ability of the compounds to initiate cytotoxicity was also determined. […] The determination of IC50 values was performed on taccalonolide material after NMR analysis and subsequent lyophilization. Ethanol or DMSO was used as the vehicle for all cellular studies.
The antiproliferative potencies of the taccalonolides were evaluated in HeLa cells using the SRB assay.
A general note: Sulforhodamine B stains cellular protein and so reports cell mass.

[1] abbreviates: HeLa cells, SRB assay, parent taccalonolide, read-out: IC50.
[2] abbreviates: Homo sapiens, HeLa, HeLa cells, SRB assay, parent taccalonolide, read-out: IC50.

In the case of Taccalonolide AG, the IC50 under setting [1] came out at 0.032 µM. With `CC(=O)O[C@@H]1[C@H]2[C@@H]3[C@@H](O)C(=O)[C@H]4C[C@@H]5O[C@@H]5[C@H](OC(C)=O)[C@]4(C)[C@H]3C[C@H](OC(C)=O)[C@]2(C)[C@@H]2[C@@H]1[C@]1(C)C(=C[C@H]2C)OC(=O)[C@@]1(C)O` [Taccalonolide E, reference compound], under setting [2], the IC50 was determined as 39.5 µM. Turning to `CC(=O)O[C@H]1[C@H]2[C@H]([C@@H]3[C@@H](O)[C@@H]4[C@H]([C@H](C)C=C5OC(=O)[C@@](C)(O)[C@@]54C)[C@@]3(C)[C@H]1OC(C)=O)[C@@H](O)C(=O)[C@@]1(O)C[C@@H]3O[C@@H]3[C@H](OC(C)=O)[C@]21C` [Taccalonolide AB], the IC50 under setting [2] stood at 2.77 µM. With Taccalonolide AQ, the IC50 under setting [1] is over 30 µM. Moreover, for the setting “HeLa cells”, the “activity at concentrations as high as 30,000 nM” value (shortened to “activity … as 30,000 nM”) is given as “little to no activity”. On to `CC(=O)O[C@@H]1[C@H]2[C@@H]3[C@@H](OC(C)=O)C(=O)[C@@]4(O)C[C@@H]5O[C@@H]5[C@H](OC(=O)CC(C)C)[C@]4(C)[C@H]3C[C@H](OC(C)=O)[C@]2(C)[C@@H]2[C@@H]1[C@]1(C)C(=C[C@H]2C)OC(=O)[C@@]1(C)O` [Taccalonolide T, reference compound], for which the IC50 under setting [2] worked out at 0.335 µM. `CC(=O)O[C@H]1C[C@H]2[C@H]([C@@H]3[C@H]4OC(=O)[C@@](C)(O)[C@@]5(C)C(=O)C[C@@H](C)[C@@H]([C@@H]45)[C@]31C)[C@@H](O)C(=O)[C@H]1C[C@@H]3O[C@@H]3[C@H](OC(C)=O)[C@@]12C` [Taccalonolide AK]: the IC50 under setting [1] was over 30 µM. Also, for the setting “HeLa cells”, the “activity … as 30,000 nM” value is reported as “no activity”.

On to Taccalonolide AS, for which, under setting [1], the IC50 was over 10 µM. Further, where the note is “HeLa cells”, the “activity … as 30,000 nM” value is “little to no activity”.

Consider `CC(=O)O[C@@H]1[C@H]2[C@H]3[C@H]([C@H](OC(C)=O)[C@H](OC(C)=O)[C@]2(C)[C@@H]2[C@@H]1[C@]1(C)C(=C[C@H]2C)OC(=O)[C@@]1(C)O)[C@@]1(C)[C@@H](OC(C)=O)[C@H]2O[C@H]2C[C@]1(O)C(=O)[C@@H]3OC(C)=O` [Taccalonolide AA], for which the half-maximal inhibitory concentration (IC50) under setting [2] was determined as 0.0323 µM.

Turning to `CC(=O)O[C@H]1C[C@H]2[C@H]([C@@H]3[C@@H](O)[C@@H]4[C@H]([C@H](C)[C@@H]5O[C@@]56OC(=O)[C@@](C)(O)[C@]46C)[C@]31C)[C@@H](O)C(=O)[C@H]1C[C@@H]3O[C@@H]3[C@H](OC(C)=O)[C@@]12C` [N-epo], the IC50 (HeLa cells, SRB assay, C22-C23 epoxide of the taccalonolide in the same line, read-out: Corresponding Epoxide IC50) was 0.011 µM. “5α-hydroxy-taccalonolide A [Taccalonolide Z]”: the IC50 under setting [1] was determined as 0.12 µM.

Regarding Taccalonolide AH, the concentration for half-maximal inhibition (IC50) under setting [1] worked out at 0.158 µM. As for `CC(=O)O[C@@H]1[C@H]2[C@@H]3[C@@H](OC(C)=O)C(=O)[C@@]4(O)C[C@@H]5O[C@@H]5[C@H](OC(C)=O)[C@]4(C)[C@H]3C[C@H](OC(C)=O)[C@]2(C)[C@@H]2[C@@H]1[C@]1(C)C(=C[C@H]2C)OC(=O)[C@@]1(C)O` [Taccalonolide R, reference compound], the IC50 under setting [2] was 13.1 µM and the IC50 (Homo sapiens, HeLa, read-out: IC50) stood at 13 µM. In the case of `CC(=O)O[C@H]1C[C@H]2[C@H]([C@@H]3[C@@H](O)[C@@H]4[C@H]([C@H](C)C=C5OC(=O)[C@@](C)(O)[C@@]54C)[C@]31C)[C@@H](O)C(=O)[C@@]1(O)C[C@@H]3O[C@@H]3[C@H](OC(=O)CC(C)C)[C@]21C` [Taccalonolide AM], the IC50 under setting [1] came to 1.2 µM. Consider `CC(=O)O[C@@H]1[C@H]2[C@H]3C([C@H](OC(C)=O)[C@H](OC(C)=O)[C@]2(C)[C@@H]2[C@@H]1[C@]1(C)C(=C[C@@]2(C)OO)OC(=O)[C@@]1(C)O)[C@]1(C)[C@H](C[C@@H]2O[C@@H]2[C@@H]1OC(C)=O)C(=O)[C@@H]3O` (stereo partly drawn) [Taccalonolide AC], for which, where the note is “HeLa cells, up to 50,000 nM”, the “activity at concentrations as high as 50,000 nM” value is on record as “no activity”. For `CC(=O)O[C@H]1C[C@H]2[C@H]([C@@H]3[C@@H](O)[C@@H]4[C@H]([C@H](C)C=C5OC(=O)[C@@](C)(O)[C@@]54C)[C@]31C)[C@@H](O)C(=O)[C@H]1C[C@@H]3O[C@@H]3[C@H](O)[C@@]12C` [Taccalonolide AN], the IC50 under setting [1] worked out at 1 µM. The same measure, in the same setting: for `CC(=O)O[C@@H]1[C@H]2[C@@H]3C(=O)C(O)=C4C[C@@H]5O[C@@H]5[C@H](OC(C)=O)[C@]4(C)[C@H]3[C@H](OC(C)=O)[C@H](OC(C)=O)[C@]2(C)[C@@H]2[C@@H]1[C@]1(C)C(=C[C@H]2C)OC(=O)[C@@]1(C)O` [Taccalonolide AD] the value was 3.48 µM. On to `CC(=O)O[C@H]1C[C@H]2[C@H]([C@@H]3[C@@H](O)[C@@H]4[C@H]([C@H](C)C=C5OC(=O)[C@@](C)(O)[C@@]54C)[C@]31C)[C@@H](O)C(=O)[C@H]1C[C@@H]3O[C@@H]3[C@H](OC(C)=O)[C@@]12C` [Taccalonolide N, reference compound], for which the IC50 under setting [2] is 8.5 µM. On to `CC(=O)O[C@H]1[C@H]2[C@@H](C(=O)[C@H](O)[C@H]3C[C@@H]4O[C@@H]4[C@H](OC(C)=O)[C@]23C)[C@@H]2[C@@H](O)[C@@H]3[C@H]([C@H](C)C=C4OC(=O)[C@@](C)(O)[C@@]43C)[C@@]2(C)[C@H]1OC(C)=O` [Taccalonolide I, reference compound], for which the IC50 under setting [2] is over 10 µM. On to Taccalonolide AL, for which the concentration for half-maximal inhibition (IC50) under setting [1] worked out at 18 µM.

Consider `CC(=O)O[C@@H]1[C@H]2[C@H]3[C@H]([C@H](OC(C)=O)[C@H](OC(C)=O)[C@]2(C)[C@@H]2[C@@H]1[C@]1(C)C(=C[C@H]2C)OC(=O)[C@@]1(C)O)[C@]1(C)[C@H](C[C@@H]2O[C@@H]2[C@@H]1OC(C)=O)C(=O)[C@@H]3O` [Taccalonolide A, reference compound], for which, under setting [2], the IC50 stood at 5.38 µM. With Taccalonolide AP, the IC50 under setting [1] was over 30 µM. Consider `CC(=O)O[C@H]1[C@H]2[C@H]([C@@H]3[C@@H](O)[C@@H]4[C@H]([C@H](C)C=C5OC(=O)[C@@](C)(O)[C@@]54C)[C@@]3(C)[C@H]1OC(C)=O)[C@@H](O)C(=O)[C@H]1C[C@@H]3O[C@@H]3[C@H](OC(C)=O)[C@]21C` [Taccalonolide B, reference compound], for which the IC50 under setting [2] turned out to be 3.12 µM.

For `CC(=O)O[C@@H]1[C@H]2[C@H]3[C@H]([C@H](OC(C)=O)[C@H](OC(C)=O)[C@]2(C)[C@@H]2[C@@H]1[C@]1(C)C(=C[C@H]2C)OC(=O)[C@@]1(C)O)[C@]1(C)[C@H](C[C@@H]2O[C@@H]2[C@@H]1OC(C)=O)C(=O)C3(O)O` [Taccalonolide AE], the IC50 under setting [1] was 5.01 µM.

In the case of Taccalonolide AR, the IC50 under setting [1] is over 30 µM. Besides, the “activity … as 30,000 nM” value (HeLa cells) is “little to no activity”.

In the case of `CC(=O)O[C@H]1[C@H]2[C@H]([C@@H]3[C@H]4OC(=O)[C@@](C)(O)[C@@]5(C)C(=O)C[C@@H](C)[C@@H]([C@@H]45)[C@@]3(C)[C@H]1OC(C)=O)[C@@H](O)C(=O)[C@H]1C[C@@H]3O[C@@H]3[C@H](OC(C)=O)[C@]21C` [Taccalonolide AO], the IC50 under setting [1] was over 30 µM. The “activity … as 30,000 nM” value (HeLa cells) is on record as “no activity”. As to `CC(=O)O[C@H]1[C@@H]2[C@H]([C@H](C)C=C3OC(=O)[C@@](C)(O)[C@@]32C)[C@]2(C)[C@@H]1C1=C(O)C(=O)[C@H]3C[C@@H]4O[C@@H]4[C@H](OC(C)=O)[C@]3(C)[C@H]1[C@H](OC(C)=O)[C@@H]2OC(C)=O` [Taccalonolide H2], for the setting “HeLa IC50 ratio”, the “more potent than taccalonolide A” value stood at 7.4 fold. Besides, the IC50 under setting [1] is 0.73 µM.

As a reminder, the IC50 is the midpoint of a concentration-inhibition curve.
